Measurements reported in the SangsterLogP compilation.

Assays:
[1] = method code SF, from DOI: 10.1016/j.bmcl.2006.04.097, PMID: 16714112
[2] = method code SF-AS, from DOI: 10.1016/0006-2952(93)90433-w, PMID: 8494536; conditions: pH 7.4
[3] = method code SF-AS, from DOI: 10.1007/bf02877675, PMID: 411721
[4] = method code SF, from DOI: 10.1021/jm00307a001, PMID: 5637185
[5] = method code SF-AS, from DOI: 10.1111/j.2042-7158.1979.tb13606.x, PMID: 41067; conditions: pH 1.2
[6] = method code SF, from DOI: 10.1016/0048-3575(88)90017-x
[7] = method code SF, from DOI: 10.1016/0360-3016(86)90226-9, PMID: 3744928; conditions: pH 7.4
[8] = method code SF, from DOI: 10.1021/jm00378a018, PMID: 6389865; conditions: pH 7.0
[9] = method code SF-AS, from DOI: 10.1021/jm00163a043, PMID: 2153206; conditions: pH 7.0
[10] = method code SF-AS, from DOI: 10.1002/jps.2600800717, PMID: 1658297
[11] = from Dutta, H.; Mehta, N.; SenGupta, M.; Pal, D.; Sengupta, C.; De, A. (1988). Dioxanide furoate: studies on its interaction with blood phospholipid in relation to partition coefficients of related drugs. …
[12] = method code SF-HPLC, from DOI: 10.1016/0378-5173(87)90234-1; conditions: pH 4.0
[13] = method code SF-AS, from Holmes, L.; Lough, E. (1976). Effect of Intramolecular Hydrogen Bonding on Partition Coefficients [Technical Note]. Defence Research Establishment Suffield.
[14] = not given; remark: listed apart in the source
[15] = method code SF-AS, from DOI: 10.1021/jm00223a031, PMID: 810572
[16] = method code SF-GLC, from Hermens, J., & De Bruijn, J. (1987). A QSAR study for fish toxicity data of organophosphorus compounds. QSAR in Drug Design and Toxicology, 10, 343-345.
[17] = not given; remark: listed apart in the source
[18] = not given; remark: listed apart in the source
[19] = method code SF-AS, from DOI: 10.1002/1521-3838(200111)20:4<291::aid-qsar291>3.0.co;2-q
[20] = method code SF, from DOI: 10.1515/bc.2002.085, PMID: 12108546
[21] = method code SF, from DOI: 10.1021/jm030913e.s001, PMID: 14736235; conditions: pH 7.4
[22] = not given; remark: listed apart in the source
[23] = method code SF-HPLC, from DOI: 10.1016/s0223-5234(02)01360-0, PMID: 12008054; conditions: pH 7.4
[24] = method code SF-RC, from Audran, M.; Chanal, J.; Berge, G.; Marignan, R. (1983). Binding-structure correlation of bovine serum albumin in a series of cresotinamides. International Journal of Pharmaceutics, 15(3)273-284.; conditions: pH 1.0
[25] = method code SF-AS, from DOI: 10.1021/es00012a023, PMID: 22148214
[26] = method code SF-HPLC, from DOI: 10.1016/0378-5173(82)90005-9; conditions: pH 3.0
[27] = not given; remark: listed apart in the source
[28] = method code SF, from DOI: 10.1111/j.2042-7158.1971.tb08772.x, PMID: 4401532; conditions: pH 7.2

Fc1cccc(F)c1C1=NCCO1
logP [1]: 1.45

NS(=O)(=O)c1cccc2ccccc12
logD [2]: 1.55

O=[N+]([O-])c1ccc(Oc2ccccc2)cc1
logP: 3.79

N#CC(C#N)=NNc1cccc(Cl)c1
logP [3]: 3.13

C#CC(/C=C/Cl)(CC)OC(N)=O (centres undefined)
logP [4]: 1.71

CCCCOc1ccc(C(=O)O)cc1
logD [5]: 3.57

CC(=O)OCN1C(=O)c2cccc3cccc(c23)C1=O
logP [6]: 2.34

O=[N+]([O-])c1ncn(CC(O)CN2CC2)n1 (centres undefined)
logD [7]: -0.72

O=C(Cn1cnc([N+](=O)[O-])n1)N1CCOCC1
logD [7]: -0.96

CC(=O)Nc1nc(N2CCN(C)CC2)c(Cl)nc1[N+](=O)[O-]
logD [8]: 0.5

Cc1cn([C@H]2C[C@H](N=[N+]=[N-])[C@@H](CO)O2)c(=O)[nH]c1=S
logD [9]: 1.07

CC1(C)CC(N(N=O)C(=O)NC2C(O)OC(CO)C(O)C2O)CC(C)(C)N1O (centres undefined)
logP [10]: 1.87

CCC1(CC)SCC(=O)NC1=O
logP [4]: 1.5

CC(=O)Nc1nc(NCC(O)CO)c(Cl)nc1[N+](=O)[O-] (centres undefined)
logD [8]: 0

CN(C(=O)C(Cl)Cl)c1ccc(OC(=O)c2ccccc2)cc1
logP [11]: 2.56

CN(N=O)C(=O)NC[C@H](O)[C@@H](O)[C@H](O)[C@H](O)CO
logP [10]: -0.96

O=[N+]([O-])c1ccccc1C1=NCCO1
logP [1]: 1.27

CCCCCCOC(=O)n1cc(F)c(=O)[nH]c1=O
logD [12]: 2.04

Cc1ccc(NN=C(C#N)C#N)cc1
logP [3]: 3.02

COc1cccc(C=O)c1O
logP [13]: 1.33

CC(C)(C)c1ccc(O)c(C(C)(C)C)c1
logP [14]: 4.74

Cc1ccnc2c(O)cccc12
logP [15]: 2.36

COP(=S)(OC)Oc1ccccc1
logP [16]: 2.97

COP(=S)(OC)Oc1ccc(SC)cc1
logP [16]: 3.64

CNc1ccccc1C
logP [17]: 2.16

CCCCCCN1CC(C(=O)OC)CC1=O (centres undefined)
logP [18]: 2.3

Cc1ccccc1N(C)C
logP [17]: 2.81

COc1ccc(-c2n[nH]c(=S)o2)cc1
logP [19]: 3

CCCCCCCCOC(=O)C1(C)CCC=[N+]1[O-] (centres undefined)
logP [20]: 1.62

CCC[C@@H]1CC(=O)N([C@@H](CC)C(N)=O)C1
logD [21]: 1

CC[C@@H](C(N)=O)N1CCCC1=O
logD [21]: -0.65

O=C(O)Cc1ccc(F)cc1
logP [22]: 1.6

O=C(c1ccccn1)n1c(=O)[nH]cc(F)c1=O
logD [12]: -0.06

CC(=O)OCN1C(=O)C=C(C)C1=O
logP [6]: 0.45

CCCCOC(=O)C1(C)CCC=[N+]1[O-] (centres undefined)
logP [20]: 0.12

Nc1ccc(-c2n[nH]c(=S)o2)cc1
logP [19]: 2.03

O=C(c1ccccc1)c1ccccc1O
logP [13]: 3.52

CS(=O)(=O)c1ccccc1
logD [2]: 0.55

CNC(=NC#N)NCCSCc1nc[nH]c1C
logD [23]: 0.35

Cc1cc(Br)cc(C(=O)NC(C)C)c1O
logD [24]: 4.19

COC(=O)CSc1ccccc1[N+](=O)[O-]
logP [25]: 1.88

O=C1NC(=O)C2(CCC2)C(=O)N1
logD [26]: -0.27

CC(C)OC(=O)n1cc(F)c(=O)[nH]c1=O
logD [12]: 0.2

O=C1NC(=O)C2(CCCCCC2)C(=O)N1
logD [26]: 1.36

CCCCCCCCCCCCN1CC(C(=O)O)CC1=O (centres undefined)
logP [18]: 2.6

Oc1cccc2c(Cl)ccnc12
logP [15]: 2.67

Cc1cc(Br)cc(C(N)=O)c1O
logD [24]: 2.76

COC(=O)C1CC(=O)N(C)C1 (centres undefined)
logP [18]: -0.74

Fc1cccc(Cl)c1C1=NCCO1
logP [1]: 1.89

CCNc1nc(NC(C)CC)nc(OC)n1 (centres undefined)
logP [27]: 2.96

CCNC(=O)c1cc(Br)cc(C)c1O
logD [24]: 3.61

S=c1[nH]nc(-c2ccc(Br)cc2)o1
logP [19]: 3.93

CC(C)OC(=O)CS(=O)c1ccc([N+](=O)[O-])cc1[N+](=O)[O-] (centres undefined)
logP [25]: 1.61

CNc1nc(NC(C)C)nc(SC)n1
logP [27]: 2.79

CC[C@@H](C(N)=O)N1C[C@H](CI)CC1=O
logD [21]: 0.51

CC(C)C[C@H]1C(=O)N2CCC[C@H]2[C@]2(O)O[C@](NC(=O)[C@@H]3C=C4c5cccc6[nH]c(Br)c(c56)C[C@H]4N(C)C3)(C(C)C)C(=O)N12
logD [23]: 4.61

O=C(Nc1ccc(O)cc1)C(Cl)Cl
logP [11]: 1.6

Nc1nc(NCC(O)CO)c(Cl)nc1[N+](=O)[O-] (centres undefined)
logD [8]: -0.22

COc1ccc(CCC(=O)O)cc1
logD [5]: 1.9

O=C(O)Cc1ccc(Oc2cccc(Br)c2)cc1
logP [22]: 4.1

CC1(C)CC(N(N=O)C(=O)NC2C(O)OC(CO)C(O)C2O)C(C)(C)N1O (centres undefined)
logP [10]: 1.81

CC(=O)N(C)c1ccc(O)cc1
logD [28]: 0.61

Cc1ccc2ccccc2n1
logP [17]: 2.59

c1ccc(N(c2ccccc2)c2ccccc2)cc1
logP: 5.22

COP(=S)(OC)Oc1cc(Cl)c(I)cc1Cl
logP [16]: 4.61

NC(=O)c1cccc2ccccc12
logD [2]: 1.88

CC(C)(C)c1cc(C(C)(C)C)c(O)c(C(C)(C)C)c1
logP [14]: 6.3

COc1ccc(C(=O)O)cc1
logD [5]: 1.88

CCNc1nc(NCC)nc(OC)n1
logP [27]: 2.41

NC(N)=N/N=C/c1c(Cl)cccc1Cl
logD [23]: 1.4

CN(C(=O)C(Cl)Cl)c1ccc(OC(=O)c2ccco2)cc1
logP [11]: 2.24

O=C(O)Cc1cc(Cl)c(Cl)cc1Cl
logP [22]: 3.6

CCCCNC(=O)Cn1cnc([N+](=O)[O-])n1
logD [7]: 0.89

CC(=O)c1ccc([N+](=O)[O-])cc1
logP: 1.61

COc1ccc(N(C)C(C)=O)cc1
logD [28]: 0.72

CCOC(=O)C1(C)CCC=[N+]1[O-] (centres undefined)
logP [20]: -0.82

CC(=O)OCN1C(=O)C2CC=CCC2C1=O (centres undefined)
logP [6]: 0.97

N#CC(C#N)=NNc1ccccc1
logP [3]: 2.49

COc1ccc(O)c2ncccc12
logP [15]: 2.06

CC(=O)c1ccc(O)cc1
logP [13]: 1.45

CC(C)OC(=O)CS(=O)c1ccccc1[N+](=O)[O-] (centres undefined)
logP [25]: 1.59

C#CC(C=C)(CC)OC(N)=O (centres undefined)
logP [4]: 1.09

Cc1ccc(C)c(O)c1
logP [14]: 2.48

CC(=O)Nc1ccc(Cl)cc1
logD [28]: 1.87
